According to paper PMC6773697, “Antileukemic activity of novel adenosine derivatives” (Scientific Reports, 2019):

Tests used:
HL-60 cells [1] = test: XTT cytotoxicity assay, HL-60; type: cell-based; conditions: Homo sapiens, 48 h incubation, none in the picture
Method: (§1) The cytotoxic activity test with XTT (sodium 3′-[1-(phenylaminocarbonyl)- 3,4-tetrazolium]-bis (4-methoxy-6-nitro) benzene sulfonic acid hydrate) is a colorimetric method for determining the parameters associated with cell viability. The cytotoxicity in HL-60, THP-1, MOLT-4, and HMEC-1 cells was measured by the XTT assay. XTT is reduced to formazan by the mitochondrial respiratory chain oxidoreductase, which is active only in living cells. The formed crystals of formazan are dissolved directly in the medium. The amount of product is proportional to the number of live cells.
(§2) The IC50 parameter was determined by dividing the mean absorbance values of the drug-treated samples by those of control cells and defined as the drug concentration causing a 50% reduction of cell viability relative to the control. It was calculated using the “Ed50v10(1)” computer application. Cells were plated in 96-well plates at a density of 15 × 10^3 cells in 100 μL culture medium. Drugs were then added at a concentration range of 10 nM–10,000 nM to obtain a final volume of the mixture of 150 μL. Some cells were preincubated with an ATR kinase inhibitor (VE-821) for 1 h at 37 °C before adding the tested compounds. In this case drugs were added at a concentration range of 10 nM–300 nM. For the XTT assay, after 48 h of incubation, the plates were centrifuged at 1,500 rpm for 10 min at 4 °C, the culture medium was removed, and the cells were suspended in 100 mm^3 of HBSS (Hank’s Buffered Salt Solution) containing 140 mM NaCl, 5 mM KCl, 0.8 mM MgCl2, 1.8 mM CaCl2, 1 mM Na2HPO4, 10 mM HEPES (N- (2-hydroxyethyl) -piperazine-N′- (2-ethanesulfonic acid), and 1% glucose at pH 7.4. Then, 50 μL of XTT solution (in PBS) was added to a final concentration of […]. In addition, PMS (phenazine methosulphate) - methyl dibenzo-N-methylpyrazine sulphate (0.383 mg/cm^3) was used, which was combined with XTT solution at a ratio of 1:50. After 4 h of incubation with XTT, absorbance was measured at a wavelength λ = 450 nm and reference wavelength λ = 690 nm with a microplate reader (BioTek, Winooski, VT, USA).

γH2AX in MOLT-4 cells = test: H2AX (phospho S139) In-Cell ELISA, MOLT-4; type: cell-based, human; conditions: MOLT-4, 48 h, versus CLA
Method: The level H2AX protein phosphorylated Ser139 was measured in tested leukemia cells by using of In-Cell ELISA, ICE assay kit. The cells were seeded on 96-well plates (100 × 10^3/well) and 48 h later, incubated with the appropriate compounds. In some experimental variants, cells were preincubated for 1 h with VE-821 (10 µM). The cells were fixed by adding a final concentration of 4% paraformaldehyde solution (10 min, room temperature). After 2 h of Block Solution incubation, cells were treated with a highly specific antibody. A rabbit monoclonal antibody specific to H2AX (phospho S139) was used (at 1:100, 2 h incubation). Next Secondary Antibody Solution (at 1:1000) were added to the cells. The measurements were obtained on a fluorescence plate reader at an excitation wavelength of 680 nm and emission at 694 nm. The cells were PBS washed and 100 µL of Janus Green Stain was added to each well of the plate (5 min., room temperature). The data were collected at excitation wavelength of 750 nm and emission at 800 nm channel (Fluoroskan Cary Eclipse). Antibody signal intensity was normalized to the total amount using Janus Green cell-stain.

HL-60 cells [2] = test: Comet assay with proteinase K post-treatment (DNA-protein cross-links), HL-60; type: cell-based, human; conditions: for DNA damage after proteinase K: HL-60, 24 h
Method: Single cell gel electrophoresis (comet assay) was used to detect alkali labile sites, single and double DNA strand breaks, and cross-links induced by genotoxic agents. After electrophoresis and gel staining with 4,6-diamidino-2-phenylindole (DAPI), the released DNA was visible under a fluorescence microscope as a characteristic comet tail. The cells were plated on 24-well plates (20,000 cells/mL) and treated with CLA, CLA-FMOR, CLA-FPIP, or CLA-FPIR at the indicated concentrations for 2, 24, and 48 h at 37 °C. Some cells were preincubated with an ATR kinase inhibitor (VE-821) for 1 h at 37 °C before adding the tested compounds. Next, cells were collected into Eppendorf tubes and rinsed with PBS. Then, cells were suspended in 0.75% low melting point (LMP) agarose dissolved in PBS (pH 7.4) and placed on microscope slides precoated with 0.5% normal melting point (NMP) agarose. Subsequently, the slides were treated with a cooled lysis buffer (2.5 M NaCl, 100 mM EDTA, 10 mM Tris, 1% Triton X-100, pH 9.0) for 1–24 h at 4 °C. Then, slides were placed in developing buffer (300 mM NaOH, 1 mM EDTA) for 20 min. Electrophoresis was performed in […] (30 mM NaOH, 1 mM EDTA) at 29 V and 30 mA for 20 min. The samples were stained with DAPI ([…]). The slides were stored in a wet chamber at 4 °C and analyzed under a fluorescence microscope. Fifty randomly selected cells from each slide were measured using image analysis (Nikon, Japan) attached to a COHU 4910 video camera, which was equipped with a UV-1 filter block consisting of an excitation filter (359 nm) and a barrier filter (461 nm) connected to the image analysis system Lucia-Comet v. 4.51 (Czech Republic)[41]. In the samples preincubated with VE-821, the level of DNA damage associated with the ATR kinase was determined.
Because cross-links can be undetectable in the alkaline comet assay, a variant of this method including post-treatment with proteinase K (Cat no: P2308) was used. Proteinase K digests peptide bonds, releasing the cross-linked DNA […] the DNA-protein complexes without altering the structure of the DNA-DNA complexes to distinguish them. After lysis, the slides were washed three times in TE buffer (10 mM Tris, pH 10, 1 mM EDTA). The cells were treated with aliquots of proteinase K (60 µL per slide; 1 mg/mL TE buffer) for 1 h at 37 °C in a wet chamber. Further steps of the comet assay were performed as described above.

[3] = tested on: leukemic cells (HL-60, MOLT-4, THP-1); test: XTT cytotoxicity assay, leukemic cells overall; type: cell-based, human; conditions: XTT, leukemic cell lines
Method: as §1, §2

Row | Compound | IC50 (HL-60 cells [1]) | effectiveness in inducing dsDNA (γH2AX) relative to CLA (γH2AX in MOLT-4 cells) | DNA damage after proteinase K (HL-60 cells [2]) | DNA-protein cross-links after proteinase K (HL-60 cells [2]; HL-60, starting at 2 h of incubation) | cytotoxicity (in words) [3]
1 | OC[C@H]1O[C@@H](n2cnc3c(N=CN4CCOCC4)nc(Cl)nc32)C[C@@H]1O [CLA-FMOR, [6-deamino-6-(N′, N′-3′-oxa-1′, 5′-pentamethyleneformamidine)] cladribine] | 0.122 µM | about 2 fold | increased the DNA damage | increased the level of cross-links | high cytotoxic activity
2 | OC[C@H]1O[C@@H](n2cnc3c(N=CN4CCCC4)nc(Cl)nc32)C[C@@H]1O [CLA-FPIR, [6-deamino-6-(N′, N′-l′, 4′-tetramethyleneformamidino)] cladribine] | 0.135 µM | about 2 fold | increased the DNA damage |  | high cytotoxic activity
